Test results taken from US10391104B2, “Application of antidepressant compound in preparation of antidepressant drugs and antidepressant health-care foods” (ZHEJIANG ACADEMY OF MEDICAL SCIENCES, priority 2015, dated 2019).

Assays:
male ICR mice = experiment: preliminary acute toxicity test; format: in vivo, mouse; conditions: for toxic and side reaction: preliminary acute toxicity test, no doses given; for toxic reaction: four times in 24 h, observed 7 days
Protocol: (§1) Experimental method: 20 clean male ICR mice were randomly divided into two groups, and fasted for 12 h before the experiment. Sarcostin was administered many times based on its maximum dissolution amount and maximum administration volume. For the oral administration group, sarcostin was prepared with ultra-pure water (maximum dissolution amount: 1.5 mg/mL), and was intragastrically administered four times in 24 hours with 0.3 ml/10 g body weight each time, and with the total dosage of 180 mg/kg. For the intraperitoneal injection group, sarcostin was prepared with normal saline (maximum dissolution amount: 1.0 mg/mL), and was intraperitoneally injected four times in 24 hours with 0.3 ml/10 g body weight each time, and with the total dosage of 120 mg/kg.

mice = experiment: antidepressant activity test of compounds 3, 23 and derivatives; format: in vivo, mouse; conditions: no doses given
Protocol: The solvent control and the positive control with fluoxetine and imipramine were established in the experiment.
Administration method: totally 6 dosage groups of sarcostin were established: 0.05, 0.1, 0.25, 0.5, 1, 5 mg/kg. Male Kunming mice were randomly grouped in the experiment. All test samples were intraperitoneally administered at a volumetric dose of 0.1 mL/10 g. Administration frequency and time: test was made twice respectively in 0 and 19 h, and test was made in 24 h after the first administration.

Male Kunming mice [1] = experiment: mouse forced swimming test; format: in vivo; conditions: for effect on immobility time compared with normal saline control: 15 mg/kg
Protocol: (§2) Experimental method: the experiment was made using the mouse forced swimming test and tail suspension test according to the experimental methodology of pharmacology (see the description of these methods in Xu Shuyun et al. Experimental Methodology of Pharmacology. People's Medical Publishing House, 2005: 807-808) by subacute treatment (administered twice within 24 hours) and by intraperitoneal administration. The solvent control and the positive control with fluoxetine and imipramine were established in the experiment.
(§3) Administration method: totally 6 dosage groups of sarcostin were established: 0.05, 0.1, 0.25, 0.5, 1, 5 mg/kg. Male Kunming mice were randomly grouped in the experiment. All test samples were intraperitoneally administered at a volumetric dose of 0.1 mL/10 g. Administration frequency and time: test was made twice respectively in 0 and 19 h, and test was made in 24 h after the first administration. Positive control: 15 mg/kg of fluoxetine and 15 mg/kg of imipramine.

Male Kunming mice [2] = experiment: mouse tail suspension test; format: in vivo
Protocol: as §2, §3

[3] = maximum dissolution amount; format: physicochemical
Protocol: as §1

[4] = 15 mg/kg i.p., twice within 24 h (0 and 19 h), test at 24 h
[5] = tail suspension test, 15 mg/kg i.p., twice within 24 h (0 and 19 h), test at 24 h

CC=C(C)C(=O)OC(C)C1(O)CCC2(O)C3(O)CC=C4CC(O)CCC4(C)C3CC(OC(=O)C(C)=CC)C12C (stereo not drawn) [compound 3, 12-O-tigloyl-20-O-tigloylsarcostin]
toxic and side reaction (male ICR mice): no significant toxic and side reaction
antidepressant activity (mice): significant antidepressant activities

CNc1ccccc1C(=O)OC1CC2C3(C)CCC(O)CC3=CCC2(O)C2(O)CCC(O)(C(C)=O)C12C (stereo not drawn) [compound 23, 12-O-(N-methyl) anthraniloyl deacetylmetaplexigenin]
toxic and side reaction (male ICR mice): no significant toxic and side reaction
antidepressant activity (mice): significant antidepressant activities

CNCCC(Oc1ccc(C(F)(F)F)cc1)c1ccccc1 (stereo not drawn) [Fluoxetine, reference compound]
effect on immobility time compared with normal saline control (Male Kunming mice [1]): significantly reduced the immobility time
Immobility time (Average value, s) (Male Kunming mice [1]; [4]): 79.00 s
effect on immobility time compared with normal saline group (Male Kunming mice [2]; tail suspension test, 15 mg/kg): significantly reduced the immobility time
Immobility time (Average value, s) (Male Kunming mice [2]; [5]): 132.45 s

C[C@H](O)[C@]1(O)CC[C@@]2(O)[C@]1(C)[C@H](O)C[C@@H]1[C@@]3(C)CC[C@H](O)CC3=CC[C@]12O [Sarcostin]
preferred dose (Male Kunming mice [1]): 0.1 mg/kg
Immobility time (Average value, s) (Male Kunming mice [1]; 0.05 mg/kg i.p., twice within 24 h): 85.13 s
Immobility time (Average value, s) (Male Kunming mice [1]; 0.1 mg/kg i.p., twice within 24 h): 83.63 s
Immobility time (Average value, s) (Male Kunming mice [1]; 0.25 mg/kg i.p., twice within 24 h): 112.63 s
Immobility time (Average value, s) (Male Kunming mice [1]; 0.5 mg/kg i.p., twice within 24 h): 118.19 s
Immobility time (Average value, s) (Male Kunming mice [1]; 1 mg/kg i.p., twice within 24 h): 125.44 s
Immobility time (Average value, s) (Male Kunming mice [1]; 5 mg/kg i.p., twice within 24 h): 91.50 s
antidepressant activity compared with normal saline control (Male Kunming mice [1]; 0.05 to 0.5 mg/kg): significant antidepressant activities
preferred dosage (Male Kunming mice [2]; tail suspension test): 0.5 mg/kg
Immobility time (Average value, s) (Male Kunming mice [2]; tail suspension test, 0.05 mg/kg i.p., twice within 24 h): 177.94 s
Immobility time (Average value, s) (Male Kunming mice [2]; tail suspension test, 0.1 mg/kg i.p., twice within 24 h): 167.77 s
Immobility time (Average value, s) (Male Kunming mice [2]; tail suspension test, 0.25 mg/kg i.p., twice within 24 h): 207.60 s
Immobility time (Average value, s) (Male Kunming mice [2]; tail suspension test, 0.5 mg/kg i.p., twice within 24 h): 166.46 s
Immobility time (Average value, s) (Male Kunming mice [2]; tail suspension test, 1 mg/kg i.p., twice within 24 h): 200.99 s
Immobility time (Average value, s) (Male Kunming mice [2]; tail suspension test, 5 mg/kg i.p., twice within 24 h): 177.05 s
antidepressant trend (Male Kunming mice [2]; tail suspension test, 0.1, 0.5 and 0.05 mg/kg groups): showed antidepressant trend
effect on immobility time compared with normal saline group (Male Kunming mice [2]; tail suspension test, all sarcostin doses): did not significantly reduce the immobility time
toxic reaction (male ICR mice; intragastric, total 180 mg/kg): without obvious toxic and side reaction
toxic reaction (male ICR mice; intraperitoneal injection, total 120 mg/kg): without obvious toxic and side reaction
maximum dissolution amount ([3]; normal saline): 1.0 mg/mL
maximum dissolution amount ([3]; ultra-pure water): 1.5 mg/mL

CN(C)CCCN1c2ccccc2CCc2ccccc21 [Imipramine, reference compound]
effect on immobility time compared with normal saline control (Male Kunming mice [1]): significantly reduced the immobility time
Immobility time (Average value, s) (Male Kunming mice [1]; [4]): 92.05 s
effect on immobility time compared with normal saline group (Male Kunming mice [2]; tail suspension test, 15 mg/kg): significantly reduced the immobility time
Immobility time (Average value, s) (Male Kunming mice [2]; [5]): 155.37 s
